Laboratory results published in BindingDB's records for doi:10.1021/jm00101a006 (University of Illinois, 1992).

Tests used:
[1] = biological target: T1, Urokinase-type plasminogen activator (Homo sapiens, UniProt P00749); test: Compound was tested for the rate constant of deacylation against Urokinase-type plasminogen activator
[2] = biological target: T1, Urokinase-type plasminogen activator; test: Compound was tested for the rate constant of deacylation against the enzyme Urokinase-type plasminogen activator; details: read-out: koff (s-1)
[3] = biological target: T1, Urokinase-type plasminogen activator; test: Compound was tested for the rate constant of deacylation against Urokinase-type plasminogen activator
Serine protease 1 = biological target: T2, Serine protease 1 (Bos taurus, UniProt P00760); test: Compound was tested for the rate constant of deacylation against the enzyme trypsin
T2 sequence (P00760 whole entry): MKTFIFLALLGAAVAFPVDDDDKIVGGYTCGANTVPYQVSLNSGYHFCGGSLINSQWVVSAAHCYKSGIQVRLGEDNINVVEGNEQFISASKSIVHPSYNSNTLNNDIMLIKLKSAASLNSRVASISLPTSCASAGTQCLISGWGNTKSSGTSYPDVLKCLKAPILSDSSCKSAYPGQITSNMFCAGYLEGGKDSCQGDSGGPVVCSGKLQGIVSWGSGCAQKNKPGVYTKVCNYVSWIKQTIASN

Row | koff [1] | koff [2] | koff [3] | koff (Serine protease 1) | SMILES
1 | 1.3e-05 s⁻¹ | 1.3e-05 s⁻¹ |  |  | NC(N)=Nc1ccc(C2C/C(=C/I)OC(=O)C2NC(=O)c2ccccc2)cc1 (stereo not given)
2 |  |  | 3.3e-05 s⁻¹ | 0.00025 s⁻¹ | C=C1CC(c2ccc(N=C(N)N)cc2)C(NC(=O)c2ccccc2)C(=O)O1 (stereo not given)
3 |  |  |  | 0.00033 s⁻¹ | NC(N)=Nc1ccc(C2CC(=O)O/C(=C\I)C2)cc1 (stereo not given)
